{"source": "patent EP1880990A1", "about": "“NOVEL ORGANIC ELECTROLUMINESCENT MATERIAL, ORGANIC ELECTROLUMINESCENT ELEMENT EMPLOYING THE SAME, AND THIN-FILM-FORMING SOLUTION FOR ORGANIC ELECTROLUMINESCENCE” (IDEMITSU KOSAN CO., LTD., priority 2005, dated 2006)", "key": {"Solubility in toluene": {"assay": "Solubility in toluene", "format": "physicochemical", "details": "for Solubility (toluene): soluble in an amount of ... or more; for Preparation of 1 % by mass toluene solution: 1 % by mass in toluene", "source_text": "A preparation of 1 % by mass toluene solution was tried employing Compound C below instead of Compound 1 in accordance with the same procedures as those conducted in Example 1.\nA preparation of 1 % by mass toluene solution was tried employing Compound D below instead of Compound 1 in accordance with the same procedures as those conducted in Example 1."}, "Ionization potential": {"assay": "Ionization potential", "format": "physicochemical"}}, "data": [{"smiles": "CCCCCCCCC1(CCCCCCCC)c2cc(N(c3ccccc3)c3ccc(-c4ccc(N(c5ccc(-c6ccccc6)cc5)c5ccc(-c6ccccc6)cc5)cc4)cc3)ccc2-c2ccc(N(c3ccccc3)c3ccc(-c4ccc(N(c5ccc(-c6ccccc6)cc5)c5ccc(-c6ccccc6)cc5)cc4)cc3)cc21", "note": "[Compound 10]", "values": [{"measurement": "Solubility (toluene)", "setting": "Solubility in toluene", "value": "≥ 5", "unit": "wt %"}, {"measurement": "Ionization potential", "setting": "Ionization potential", "value": 5.14, "unit": "eV"}]}, {"smiles": "CCC(C)c1ccc(N(c2ccc(-c3ccc(-c4cccc(-c5cccc(-c6ccc(-c7ccc(N(c8ccc(-c9ccc(N(c%10ccc(-c%11ccccc%11)cc%10)c%10ccc(-c%11ccccc%11)cc%10)cc9)cc8)c8ccc(C(C)CC)cc8)cc7)cc6)c5)c4)cc3)cc2)c2ccc(-c3ccc(N(c4ccc(-c5ccccc5)cc4)c4ccc(-c5ccccc5)cc4)cc3)cc2)cc1", "note": "(centres unmarked) [Compound 7]", "values": [{"measurement": "Solubility (toluene)", "setting": "Solubility in toluene", "value": "≥ 1", "unit": "wt %"}]}, {"smiles": "c1ccc(N(c2ccc(-c3ccc(N(c4ccccc4)c4cccc5ccccc45)cc3)cc2)c2cccc3ccccc23)cc1", "note": "[Compound C, reference compound]", "values": [{"measurement": "Preparation of 1 % by mass toluene solution", "setting": "Solubility in toluene", "value": "did not dissolve in toluene"}]}, {"smiles": "CC1(C)c2ccccc2-c2ccc(N(c3ccccc3)c3ccc(-c4ccc(N(c5ccccc5)c5ccc(-c6cccc(-c7ccc(N(c8ccccc8)c8ccc(-c9ccc(N(c%10ccccc%10)c%10ccc%11c(c%10)C(C)(C)c%10ccccc%10-%11)cc9)cc8)cc7)c6)cc5)cc4)cc3)cc21", "note": "[Compound 2]", "values": [{"measurement": "Solubility (toluene)", "setting": "Solubility in toluene", "value": "≥ 1", "unit": "wt %"}]}, {"smiles": "CCCCCCCCC1(CCCCCCCC)c2cc(N(c3ccccc3)c3ccc(-c4ccc(N(c5ccccc5)c5ccc6c(c5)C(C)(C)c5ccccc5-6)cc4)cc3)ccc2-c2ccc(N(c3ccccc3)c3ccc(-c4ccc(N(c5ccccc5)c5ccc6c(c5)C(C)(C)c5ccccc5-6)cc4)cc3)cc21", "note": "[Compound 4]", "values": [{"measurement": "Solubility (toluene)", "setting": "Solubility in toluene", "value": "≥ 1", "unit": "wt %"}]}, {"smiles": "c1ccc(-c2ccc(N(c3ccc(-c4ccccc4)cc3)c3ccc(-c4ccc(N(c5ccc(-c6ccccc6)cc5)c5ccc(-c6ccccc6)cc5)cc4)cc3)cc2)cc1", "note": "[Compound D, reference compound]", "values": [{"measurement": "Preparation of 1 % by mass toluene solution", "setting": "Solubility in toluene", "value": "did not dissolve in toluene"}]}, {"smiles": "c1ccc(N(c2ccc(-c3ccc(N(c4ccccc4)c4cccc5ccccc45)cc3)cc2)c2ccc(-c3cccc(-c4cccc(-c5ccc(N(c6ccccc6)c6ccc(-c7ccc(N(c8ccccc8)c8cccc9ccccc89)cc7)cc6)cc5)c4)c3)cc2)cc1", "note": "[Compound 5]", "values": [{"measurement": "Solubility (toluene)", "setting": "Solubility in toluene", "value": "≥ 1", "unit": "wt %"}]}, {"smiles": "CCC(C)c1ccc(N(c2ccc(-c3ccc(-c4cccc(-c5ccc(-c6ccc(N(c7ccc(-c8ccc(N(c9ccccc9)c9ccccc9)cc8)cc7)c7ccc(C(C)CC)cc7)cc6)cc5)c4)cc3)cc2)c2ccc(-c3ccc(N(c4ccccc4)c4ccccc4)cc3)cc2)cc1", "note": "(centres unmarked) [Compound 8]", "values": [{"measurement": "Solubility (toluene)", "setting": "Solubility in toluene", "value": "≥ 1", "unit": "wt %"}]}, {"smiles": "CCC(C)c1ccc(N(c2ccc(-c3ccc(N(c4ccccc4)c4ccc5c(c4)C(C)(C)c4ccccc4-5)cc3)cc2)c2ccc(-c3cccc(-c4ccc(N(c5ccc(-c6ccc(N(c7ccccc7)c7ccc8c(c7)C(C)(C)c7ccccc7-8)cc6)cc5)c5ccc(C(C)CC)cc5)cc4)c3)cc2)cc1", "note": "(centres unmarked) [Compound 3]", "values": [{"measurement": "Solubility (toluene)", "setting": "Solubility in toluene", "value": "≥ 1", "unit": "wt %"}]}, {"smiles": "CC1(C)c2ccccc2-c2ccc(N(c3ccccc3)c3ccc(-c4ccc(N(c5ccccc5)c5ccc(-c6cccc(-c7cccc(-c8ccc(N(c9ccccc9)c9ccc(-c%10ccc(N(c%11ccccc%11)c%11ccc%12c(c%11)C(C)(C)c%11ccccc%11-%12)cc%10)cc9)cc8)c7)c6)cc5)cc4)cc3)cc21", "note": "[Compound 9]", "values": [{"measurement": "Solubility (toluene)", "setting": "Solubility in toluene", "value": "≥ 1", "unit": "wt %"}]}]}
